pKi: −log10 of the molar value. Values belong to the compound of their own block, whether it stands above or below them.
Legend:
[1] = target: T1, MCL-1/BAK interaction in Jurkat T cells (Homo sapiens, UniProt Q07820); assay: Co-immunoprecipitation and Western blotting; format: cell-based; details: 2.5 hours, MCL-1 immunoprecipitation, Western blot
T1 construct: endogenous in cells; host or cells: Jurkat T cells
Procedure: In Opti-MEM medium, Jurkat T cells (1×10^7 cells) were treated with DMSO or compound. Cells were harvested after culturing for 2.5 hours, washed once with PBS, and lysed on ice using lysis buffer (50 mM Tris-HCl, pH 7.4, 150 mM NaCl, 1 mM EDTA, 1 mM DTT, 0.5% NP-40 and complete protease inhibitor tablet). Cell lysates were incubated with anti-MCL-1 antibody (S-19, Santa Cruz) overnight at 4° C. and incubated with protein A/G agarose for 1 hour. The beads were precipitated, washed at three times with lysis buffer, and the denatured protein was subjected to western blotting using anti-BAK (Cell Signaling) and anti-MCL-1 antibody. Western blot analysis was performed on an Immobilon-FL (Millipore) PVDF membrane. Goat anti-Rabbit IRDye 680 antibody (Licor) was used as a secondary antibody and the signal was analyzed with Odyssey 3.0 software.

[2] = target: T2, interaction between MCL-1 and BH3 (Homo sapiens, UniProt Q07820); assay: Competitive fluorescence polarization assay with FITC-MCL-1-BH3 peptide; format: binding; details: for activity in competitive fluorescence polarization assay (MCL-1/BH3): result in words; for pKi: competitive fluorescence polarization, FITC-MCL-1-BH3 50 nM, 0.8 μM MCL-1ΔNΔC, read-out: Ki, dissociation of the interaction between MCL-1 and BH-3
T2 construct: GST (cleaved yes); made in house; host or cells: E. coli BL21(DE3)
Procedure: MCL-1 protein was incubated with sulfo-NHS-Biotin (Thermo Scientific) in 0.1 M NaHCO3 buffer (pH 8.3) for 45 minutes at room temperature to biotinylate the MCL-1 protein (because MCL-1ΔNΔC protein used in the test have several Lysine residues being exposed in a surface and being apart from the active site of BH3 binding, the protein is biotinylated with modification). The reaction was quenched with addition of 1.5 M hydroxylamine. The labeled protein was separated with the dialysis with 1×PBS buffer containing 0.05% Tween20 (pH 7.4). The degree of labeling was determined according to the manufacturer's instructions (degree of biotinylation: 1.05 biotin per protein).
Fluorescence polarization values were measured with a SpectraMax M5 Multi-Mode Microplate Reader (Molecular Devices). […] KD was calculated with GraphPad Prism 4 software. […] N-terminal labeled FITC-MCL-1-BH3 peptide (FITC-Abu-[…]-NH2) was synthesized and purified with HPLC. The compounds was incubated at various concentrations with FITC-MCL-1-BH3 (50 nM) and 0.8 μM MCL-1ΔNΔC in binding buffer for 30 minutes and then was added by FITC-MCL-1-BH3 (50 nM). After incubated with addition of various concentrations of compounds, the fluorescence polarization was measured. Ki was calculated by using the conventional method (Nikolovska-Coleska, Z. et al, Anal. Biochem. 2004, 332, 261).

[3] = Water solubility in phosphate buffered saline; format: physicochemical; details: aqueous buffer; phosphate buffered saline at pH 7.4
Excerpt: As a result of analyzing the three peptoids, the selected compounds had the following structures of 9a (Chemical formula 4), 9b (Chemical formula 5) and 9c (Chemical formula 6), respectively.

[4] = target: α-synuclein disease-associated mutant A53T (Homo sapiens, UniProt P37840, A53T); assay: Thioflavin-T aggregation assay; format: biochemical; details: 30 hours, 37° C.
α-synuclein = target: T3, α-synuclein (Homo sapiens, UniProt P37840); assay: Fluorescence polarization assay, binding to wild type α-synuclein; details: result in words
T3 construct: GST (cleaved yes); made in house; host or cells: E. coli Rosetta 2 (DE3)

U266 cells = assay: Caspase 3/7 assay; format: cell-based; details: 16 hours
A549 cells = assay: Confocal microscopy, cell permeation; format: cell-based; details: fluorescence-labeled compound
Procedure: A549 cells (5×10^3 cells) were plated MEM medium containing 10% FBS of 96-well plates. Cells were maintained for 24 hours, washed with PBS, and then […] of fluorescence-labeled compound or 5 (6)-carboxyfluorescein was treated in Opti-MEM medium and incubated for 2.5 hours. The cells were washed with 1×PBS (2 times) and fluorescence images were analyzed.

Jurkat leukemia T cells = assay: Cell viability assay; format: cell-based; details: 24 hours
Procedure: (§1) Jurkat T cells were cultured in RPMI 1640 medium containing 10% FBS, and 4×10^4 Jurkat T cells were seeded in 100 μL Opti-MEM medium (Invitrogen) of 96-well plate. WS-1 cells were cultured in MEM medium containing 10% FBS and 2×10^4 WS-1 cells were seeded in 100 μL MEM medium containing 10% FBS of 96-well plate for 24 hours, washed with PBS, and cultured in 100 μL Opti-MEM. The cells were maintained at serum-starved state for 6 hours and treated with the compound. After culturing for 24 hours, the cell viability was assayed using the CellTiter 96 AQueous Non-Radioactive Cell Proliferation Assay kit (Promega) according to the manufacturer's instructions.

[5] = tested on: WS-1 human fibroblast cells; assay: Cell viability assay; format: cell-based; details: 24 hours
Procedure: as §1

[6] = tested on: U266 cells (multiple myeloma); assay: Cell viability assay; format: cell-based; details: 24 hours
[7] = tested on: HEK293 embryonic kidney cells; assay: Cell viability assay; format: cell-based; details: 24 hours
Mcl-1172-320 = Mcl-1172-320 (Homo sapiens, UniProt Q07820); assay: Competitive fluorescence polarization assay with labeled Bak-BH3 peptide
Procedure: The cell was treated with 1 mM IPTG (isopropyl β-D-1-thiogalactopyranoside) to induce the protein expression. The cell pellet was resuspended with lysis buffer (20 mM Tris, pH 7.2, 250 mM NaCl, complete protease tablet (Roche)) and sonicated to be lysis. After centrifuging, the cell lysate was applied to a 5-mL GSTrap HP column (GE Life Sciences) and performed according to the manufacturer's instructions.
Various concentrations of phenyl-piperazine-triazine in 40 μL of buffer were added to the mixture. After incubating for 15 minutes, the Fluorescence polarization (mP units) was measured with Infinite®200 PRO Microplate Reader (Tecan).

Bcl-xL1-212 = Bcl-xL1-212 (Homo sapiens, UniProt Q07817); assay: Competitive fluorescence polarization assay, selectivity; format: binding; details: competitive FP
Excerpt: Because BH3-binding pocket of MCL-1 is similar to BH3-binding pocket of Bcl-2 family proteins such as Bcl-xL, the present inventors tested the selectivity of PPT-31.

T1 sequence (Q07820 whole entry): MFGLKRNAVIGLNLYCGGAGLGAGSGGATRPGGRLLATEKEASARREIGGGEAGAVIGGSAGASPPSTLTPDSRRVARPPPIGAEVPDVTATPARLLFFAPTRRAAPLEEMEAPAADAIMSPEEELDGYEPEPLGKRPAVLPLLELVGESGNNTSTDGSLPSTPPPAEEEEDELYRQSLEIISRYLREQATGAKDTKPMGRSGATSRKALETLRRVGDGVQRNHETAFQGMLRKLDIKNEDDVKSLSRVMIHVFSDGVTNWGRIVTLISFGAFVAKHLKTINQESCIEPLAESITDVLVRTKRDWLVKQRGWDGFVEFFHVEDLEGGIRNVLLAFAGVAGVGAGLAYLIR
T2 sequence (Q07820 172-320): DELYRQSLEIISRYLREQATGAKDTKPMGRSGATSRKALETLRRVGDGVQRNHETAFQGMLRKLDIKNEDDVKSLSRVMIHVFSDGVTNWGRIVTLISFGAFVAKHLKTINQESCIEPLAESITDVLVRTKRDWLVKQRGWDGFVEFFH
Sequence of Mcl-1172-320 (Q07820 172-320): as above
Sequence of Bcl-xL1-212 (Q07817 1-212): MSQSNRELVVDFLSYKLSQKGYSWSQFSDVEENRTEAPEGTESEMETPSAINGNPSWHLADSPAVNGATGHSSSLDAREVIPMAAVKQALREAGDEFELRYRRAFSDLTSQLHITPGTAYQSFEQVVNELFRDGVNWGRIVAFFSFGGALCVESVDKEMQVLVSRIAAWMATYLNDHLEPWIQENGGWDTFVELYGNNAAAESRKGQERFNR

inhibition of MCL-1/BAK protein interaction in cells [1]: did not inhibit
activity in competitive fluorescence polarization assay (MCL-1/BH3) [2]: did not bind
SMILES: CCNc1nc(N)nc(N2CCN(c3nc(NCC)nc(NCC)n3)CC2)n1 [9-nc, 6-(4-(4-amino-6-(ethylamino)-1,3,5-triazin-2-yl)piperazin-1-yl)-N^2,N^4-diethyl-1,3,5-triazine-2,4-diamine, reference compound]

solubility [3]: ~100 µg/mL
aggregation of α-synuclein (onset / inhibition) [4]: had not inhibition of aggregation
activity in competitive fluorescence polarization assay (MCL-1/BH3) [2]: weak activity
SMILES: CCNc1nc(NCc2ccccc2)nc(N2CCN(c3nc(N)nc(NCc4ccc5c(c4)OCO5)n3)CC2Cc2ccccc2)n1 (stereo not drawn) [Chemical formula 4, 6-(4-(4-amino-6-((benzo[d][1,3]dioxol-5-ylmethyl)amino)-1,3,5-triazin-2-yl)-2-benzylpiperazin-1-yl)-N^2-benzyl-N^4-ethyl-1,3,5-triazine-2,4-diamine]

solubility [3]: ~100 µg/mL
inhibition of MCL-1/BAK protein interaction in cells [1]: effectively inhibit
pKi [2]: 4.76
SMILES: CCCN(CC1CC1)c1nc(N)nc(N2CCN(c3nc(NCC)nc(NCc4ccc5c(c4)OCO5)n3)C(Cc3ccccc3)C2)n1 (stereo not drawn) [Chemical formula 5, 6-(4-(4-amino-6-((cyclopropylmethyl)(propyl)amino)-1,3,5-triazin-2-yl)-2-benzylpiperazin-1-yl)-N^2-(benzo[d][1,3]dioxol-5-ylmethyl)-N^4-ethyl-1,3,5-triazine-2,4-diamine]

binding to α-synuclein (α-synuclein): showed affinity
solubility [3]: ~100 µg/mL
inhibition of MCL-1/BAK protein interaction in cells [1]: inhibited
cell permeability (A549 cells): permeable to cells
pKi [2]: 5.03
SMILES: CCNc1nc(NCCc2ccc(O)cc2)nc(N2CCN(c3nc(N)nc(Nc4ccc(Oc5ccccc5)cc4)n3)CC2Cc2ccccc2)n1 (stereo not drawn) [Chemical formula 6, 4-(2-((4-(4-(4-amino-6-((4-phenoxyphenyl)amino)-1,3,5-triazin-2-yl)-2-benzylpiperazin-1-yl)-6-(ethylamino)-1,3,5-triazin-2-yl)amino)ethyl)phenol]
caspase 3/7 activity (U266 cells): increased the caspase activity in a concentration-dependent manner
survival of cancer cells (Jurkat leukemia T cells): effectively inhibited the survival
survival of normal cells [5]: did not affect survival
survival of cancer cells [6]: effectively inhibited the survival
survival of normal cells [7]: did not affect survival

pKi (Mcl-1172-320): 5.14
inhibitory effect on the Mcl-1/BH3 interaction (Mcl-1172-320; at 10 μM and 50 μM, among 36 library compounds): highest inhibitory effect
inhibition of the interaction between Bcl-xL1-212 and BH3 (Bcl-xL1-212): did not inhibit
SMILES: CCNc1nc(NCc2ccccc2)nc(N2CCN(c3ccc(C(N)=O)cc3NCc3ccccc3)CC2Cc2ccccc2)n1 (stereo not drawn) [PPT-31, 2-{4-(2-aminobenzyl-4-carbamoylphenyl)-2-benzyl-piperazine}-4-aminoethyl-6-aminobenzyl-[1,3,5]triazine]

Reference: patent US10131650B2, “Alpha-helix analog having triazine-piperazine backbone and method for preparing same” (POSCO, priority 2014, dated 2018)
